According to patent publication US12371454B2, “Cyclic peptide compound having Kras inhibitory action” (priority 2019, dated 2025):
Starred links: 1 amine or outer side, 2 acyl side, 3 side chain; linkers in the order of their positions; H or OH if unused. Positions of bridges follow the written chain, without caps; N, C: chain ends. Non-standard residues stand in square brackets, D forms with d. Residues, ends and D or L forms follow the SMILES beside them. *: point of attachment. NMeAbu(3,3-F2-piperidino) = CN[C@@H](CCN1CCCC(F)(F)C1)C(=O)O; hPhe(3-Cl-4-CF3) = N[C@@H](CCc1ccc(C(F)(F)F)c(Cl)c1)C(=O)O; hPhe(3-F,4-CF3) = N[C@@H](CCc1ccc(C(F)(F)F)c(F)c1)C(=O)O; NMePhe(3-CF3) = CN[C@@H](Cc1cccc(C(F)(F)F)c1)C(=O)O; NMePhe(4-CF3) = CN[C@@H](Cc1ccc(C(F)(F)F)cc1)C(=O)O; hPhe(4-CF3) = N[C@@H](CCc1ccc(C(F)(F)F)cc1)C(=O)O; NMePhe(3,4-F2) = CN[C@@H](Cc1ccc(F)c(F)c1)C(=O)O; Pro(cis-4-Ph) = O=C(O)[C@@H]1C[C@H](c2ccccc2)CN1; NMePhe(3-Cl) = CN[C@@H](Cc1cccc(Cl)c1)C(=O)O; NMePhe(4-Cl) = CN[C@@H](Cc1ccc(Cl)cc1)C(=O)O; X35 = CN([C@@](C)(Cc1ccccc1)C(=O)[*:2])[*:1]; NMedβ3hAla = C[C@H](CC(=O)[*:2])N(C)[*:1]; NMePhe(2-F) = CN[C@@H](Cc1ccccc1F)C(=O)O; NMeGly(cPent) = CN[C@H](C(=O)O)C1CCCC1; Phe(3-I) = N[C@@H](Cc1cccc(I)c1)C(=O)O; Pro(4,4-F2) = O=C(O)[C@@H]1CC(F)(F)CN1; NMeY = CN[C@@H](Cc1ccc(O)cc1)C(=O)O; NMeCha = CN[C@@H](CC1CCCCC1)C(=O)O; NMeChg = CN[C@H](C(=O)O)C1CCCCC1; NMeF = CN[C@@H](Cc1ccccc1)C(=O)O; NMeI = CC[C@H](C)[C@H](NC)C(=O)O; NMeT = CN[C@H](C(=O)O)[C@@H](C)O; NMeD = CN[C@@H](CC(=O)O)C(=O)O; NMeL = CN[C@@H](CC(C)C)C(=O)O; NMeV = CN[C@H](C(=O)O)C(C)C; d(β3hA) = C[C@@H](N)CC(=O)O; NMeA = CN[C@@H](C)C(=O)O; NMeAib = CNC(C)(C)C(=O)O; Nle = CCCC[C@H](N)C(=O)O; Piperidide = C1CCN(*)CC1; Pyrrolidide = C1CCN(*)C1; dNMeA = CN[C@H](C)C(=O)O; Ac5c = NC1(C(=O)O)CCCC1; Aze = O=C(O)[C@@H]1CCN1; Ac4c = NC1(C(=O)O)CCC1; Sar = CNCC(=O)O

Each compound was assayed against T1, Kras and SOS1 (biotin-tagged human Kras loaded with GDP, His-tagged human SOS1) (Homo sapiens, UniProt P01116, G12D) (assay: Protein-protein interaction inhibition between Kras and SOS1 (KrasGl2D-SOS PPI) using AlphaScreen). Details: AlphaScreen; biotin-tagged human Kras loaded with GDP, His-tagged human SOS1; read-out: KRAS G12D-SOS PPI IC50.
T1 construct: made in house; host or cells: E. coli (stated for Kras only)
T1 sequence (P01116 1-188 isoform P01116-2 G12D): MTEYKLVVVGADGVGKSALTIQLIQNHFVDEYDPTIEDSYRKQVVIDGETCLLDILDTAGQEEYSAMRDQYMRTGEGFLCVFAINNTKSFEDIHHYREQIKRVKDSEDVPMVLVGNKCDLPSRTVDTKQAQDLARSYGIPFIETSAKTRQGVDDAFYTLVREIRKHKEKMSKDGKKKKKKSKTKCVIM
Assay type: binding
In short: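 Read-out is acceptor-bead light at 520-620 nm, arising when 680 nm-irradiated nickel donor beads pass singlet oxygen to streptavidin acceptors. The bead pair links His-tagged SOS1 with biotin-tagged, GDP-bound Kras from E. coli.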

SMILES	IC50 [nM]
CC[C@H](C)[C@@H]1NC(=O)[C@H](CC(C)C)N(C)C(=O)C[C@@H](C(=O)N2CCCCC2)N(C)C(=O)[C@H]([C@@H](C)O)N(C)C(=O)C2(CCCC2)NC(=O)[C@@H]2CCCN2C(=O)[C@H](CCc2ccc(C(F)(F)F)c(Cl)c2)NC(=O)CN(C)C(=O)[C@H](CC2CCCCC2)N(C)C(=O)CN(C)C(=O)CN(C)C1=O [Compound 1041] ([NMeL]I[Sar][Sar][NMeCha][Sar][hPhe(3-Cl-4-CF3)]P[Ac5c][NMeT][NMeD]-Piperidide; lactam N-11)	1.6
CCCC[C@@H]1NC(=O)[C@H](Cc2ccccc2)NC(=O)CN(C)C(=O)[C@H](Cc2ccc(Cl)cc2)N(C)C(=O)CN(C)C(=O)CN(C)C(=O)[C@H]([C@@H](C)CC)NC(=O)[C@H](CC(C)C)N(C)C(=O)C[C@@H](C(=O)N2CCCCC2)N(C)C(=O)[C@H](CC(C)C)NC(=O)C(C)(C)N(C)C1=O [Compound 1043] ([NMeL]I[Sar][Sar][NMePhe(4-Cl)][Sar]F[Nle][NMeAib]L[NMeD]-Piperidide; lactam N-11)	60
CCCC[C@@H]1NC(=O)[C@H](Cc2cccc(I)c2)NC(=O)CN(C)C(=O)[C@H](Cc2ccc(Cl)cc2)N(C)C(=O)CN(C)C(=O)CN(C)C(=O)[C@H]([C@@H](C)CC)NC(=O)[C@H](CC(C)C)N(C)C(=O)C[C@@H](C(=O)N2CCCCC2)N(C)C(=O)[C@H](CC(C)C)NC(=O)[C@H](Cc2cccc(Cl)c2)N(C)C1=O [Compound 1044] ([NMeL]I[Sar][Sar][NMePhe(4-Cl)][Sar][Phe(3-I)][Nle][NMePhe(3-Cl)]L[NMeD]-Piperidide; lactam N-11)	55
CC[C@H](C)[C@@H]1NC(=O)[C@H](C)N(C)C(=O)C[C@@H](C(=O)N2CCCC2)NC(=O)[C@H](CC(C)C)N(C)C(=O)[C@H](Cc2ccccc2)N(C)C(=O)[C@@H]2CCCN2C(=O)[C@H](CCc2ccc(C(F)(F)F)cc2)NC(=O)CN(C)C(=O)[C@H](Cc2ccc(Cl)cc2)N(C)C(=O)CN(C)C(=O)CN(C)C1=O [Compound 1048] ([NMeA]I[Sar][Sar][NMePhe(4-Cl)][Sar][hPhe(4-CF3)]P[NMeF][NMeL]D-Pyrrolidide; lactam N-11)	18
CC[C@H](C)[C@@H]1NC(=O)[C@H](CC(C)C)N(C)C(=O)C[C@@H](C)NC(=O)[C@H](C(C)C)N(C)C(=O)C2(CCCC2)NC(=O)[C@@H]2CCCN2C(=O)[C@H](CCc2ccc(C(F)(F)F)c(Cl)c2)NC(=O)CN(C)C(=O)[C@H](CC2CCCCC2)N(C)C(=O)[C@@H]2CCCN2C(=O)CN(C)C1=O [Compound 1050] (cyclo([Ac5c][NMeV][d(β3hA)][NMeL]I[Sar]P[NMeCha][Sar][hPhe(3-Cl-4-CF3)]P))	49
CCCC[C@@H]1NC(=O)[C@H](Cc2cccc(I)c2)NC(=O)CN(C)C(=O)[C@H](Cc2ccc(Cl)cc2)N(C)C(=O)CN(C)C(=O)CN(C)C(=O)[C@H]([C@@H](C)CC)NC(=O)[C@H](CC(C)C)N(C)C(=O)C[C@@H](C(=O)N2CCCCC2)N(C)C(=O)[C@H](CC(C)C)NC(=O)[C@H](Cc2cccc(C(F)(F)F)c2)N(C)C1=O [Compound 1052] ([NMeL]I[Sar][Sar][NMePhe(4-Cl)][Sar][Phe(3-I)][Nle][NMePhe(3-CF3)]L[NMeD]-Piperidide; lactam N-11)	110
CC[C@H](C)[C@@H]1NC(=O)[C@H](CC(C)C)N(C)C(=O)C[C@@H](C(=O)N2CCCCC2)N(C)C(=O)[C@H](C2CCCCC2)N(C)C(=O)C2(CCCC2)NC(=O)[C@@H]2C[C@H](c3ccccc3)CN2C(=O)[C@H](CCc2ccc(C(F)(F)F)c(Cl)c2)NC(=O)CN(C)C(=O)[C@H](CC2CCCCC2)N(C)C(=O)[C@@H]2CCN2C(=O)[C@H](C)N(C)C1=O [Compound 1053] ([NMeL]I[NMeA][Aze][NMeCha][Sar][hPhe(3-Cl-4-CF3)][Pro(cis-4-Ph)][Ac5c][NMeChg][NMeD]-Piperidide; lactam N-11)	6.7
CCCC[C@@H]1NC(=O)[C@H](Cc2cccc(I)c2)NC(=O)CN(C)C(=O)[C@H](Cc2ccc(OC)cc2)N(C)C(=O)[C@@H]2CCN2C(=O)CN(C)C(=O)[C@H]([C@@H](C)CC)NC(=O)[C@H](CC(C)C)N(C)C(=O)C[C@@H](C(=O)N2CCCCC2)N(C)C(=O)[C@H](CC(C)C)NC(=O)[C@](C)(Cc2ccccc2)N(C)C1=O [Compound 1058] ([NMeL]I[Sar][Aze][NMeY](Me)[Sar][Phe(3-I)][Nle][X35]L[NMeD]-Piperidide; lactam N-11)	14
CC[C@H](C)[C@@H]1NC(=O)[C@H](CC(C)C)N(C)C(=O)C[C@@H](C(=O)N2CCCCC2)N(C)C(=O)[C@H](CC(C)C)N(C)C(=O)C2(CCCC2)NC(=O)[C@@H]2CCCN2C(=O)[C@H](CCc2ccc(C(F)(F)F)c(F)c2)NC(=O)CN(C)C(=O)[C@H](Cc2ccc(Cl)cc2)N(C)C(=O)CN(C)C(=O)CN(C)C1=O [Compound 1061] ([NMeL]I[Sar][Sar][NMePhe(4-Cl)][Sar][hPhe(3-F,4-CF3)]P[Ac5c][NMeL][NMeD]-Piperidide; lactam N-11)	14
CC[C@H](C)[C@@H]1NC(=O)[C@H](CC(C)C)N(C)C(=O)C[C@@H](C(=O)N(C)C)N(C)C(=O)[C@H](C2CCCC2)N(C)C(=O)C2(CCCC2)NC(=O)[C@H](Cc2ccc(Cl)cc2)N(C)C(=O)[C@H](CCc2ccc(C(F)(F)F)c(Cl)c2)NC(=O)CN(C)C(=O)[C@H](CC2CCCCC2)N(C)C(=O)[C@@H]2CCN2C(=O)[C@H](C)N(C)C1=O [Compound 1063] ([NMeL]I[NMeA][Aze][NMeCha][Sar][hPhe(3-Cl-4-CF3)][NMePhe(4-Cl)][Ac5c][NMeGly(cPent)][NMeD]-NMe2; lactam N-11)	43
CC[C@H](C)[C@@H]1NC(=O)[C@H](C)N(C)C(=O)C[C@@H](C)NC(=O)[C@H](C2CCCC2)N(C)C(=O)C2(CCCC2)NC(=O)[C@@H]2CCCN2C(=O)[C@H](CCc2ccc(C(F)(F)F)c(Cl)c2)NC(=O)[C@@H](C)N(C)C(=O)[C@H](Cc2ccc(Cl)cc2)N(C)C(=O)CN(C)C(=O)CN(C)C1=O [Compound 1065] (cyclo([Ac5c][NMeGly(cPent)][d(β3hA)][NMeA]I[Sar][Sar][NMePhe(4-Cl)][dNMeA][hPhe(3-Cl-4-CF3)]P))	70
CC[C@H](C)[C@@H]1NC(=O)[C@H](CC(C)C)N(C)C(=O)C[C@@H](C)N(C)C(=O)[C@H]([C@@H](C)CC)N(C)C(=O)C2(CCC2)NC(=O)[C@@H]2CC(F)(F)CN2C(=O)[C@H](CCc2ccc(C(F)(F)F)c(Cl)c2)NC(=O)CN(C)C(=O)[C@H](Cc2ccc(C(F)(F)F)cc2)N(C)C(=O)CN(C)C(=O)CN(C)C1=O [Compound 1074] (cyclo([Ac4c][NMeI][NMedβ3hAla][NMeL]I[Sar][Sar][NMePhe(4-CF3)][Sar][hPhe(3-Cl-4-CF3)][Pro(4,4-F2)]))	11
CC[C@H](C)[C@@H]1NC(=O)[C@H](C)N(C)C(=O)C[C@@H](C)NC(=O)[C@H](C2CCCC2)N(C)C(=O)C2(CCCC2)NC(=O)[C@@H]2CCCN2C(=O)[C@H](CCc2ccc(C(F)(F)F)c(Cl)c2)NC(=O)[C@@H](C)N(C)C(=O)[C@H](Cc2ccc(F)c(F)c2)N(C)C(=O)CN(C)C(=O)CN(C)C1=O [Compound 1075] (cyclo([Ac5c][NMeGly(cPent)][d(β3hA)][NMeA]I[Sar][Sar][NMePhe(3,4-F2)][dNMeA][hPhe(3-Cl-4-CF3)]P))	140
CC[C@H](C)[C@@H]1NC(=O)[C@H](C)N(C)C(=O)C[C@@H](C)NC(=O)[C@H](C2CCCC2)N(C)C(=O)C2(CCCC2)NC(=O)[C@@H]2CCCN2C(=O)[C@H](CCc2ccc(C(F)(F)F)c(Cl)c2)NC(=O)CN(C)C(=O)[C@H](Cc2ccccc2F)N(C)C(=O)[C@@H]2CCCN2C(=O)CN(C)C1=O [Compound 1077] (cyclo([Ac5c][NMeGly(cPent)][d(β3hA)][NMeA]I[Sar]P[NMePhe(2-F)][Sar][hPhe(3-Cl-4-CF3)]P))	34
CC[C@H](C)[C@@H]1NC(=O)[C@H](C)N(C)C(=O)C[C@@H](C)NC(=O)[C@H](C(C)C)N(C)C(=O)[C@H](Cc2ccccc2)N(C)C(=O)[C@H](CC(C)C)N(C)C(=O)[C@H](CCc2ccc(C(F)(F)F)c(Cl)c2)NC(=O)CN(C)C(=O)[C@H](Cc2ccc(Cl)cc2)N(C)C(=O)CN(C)C(=O)CN(C)C1=O [Compound 1079] (cyclo(I[Sar][Sar][NMePhe(4-Cl)][Sar][hPhe(3-Cl-4-CF3)][NMeL][NMeF][NMeV][d(β3hA)][NMeA]))	15
CC[C@H](C)[C@@H]1NC(=O)[C@H](CC(C)C)N(C)C(=O)C[C@@H](C(=O)N(C)C)N(C)C(=O)[C@H](C2CCCC2)N(C)C(=O)[C@H](C)NC(=O)[C@H](CCN2CCCC(F)(F)C2)N(C)C(=O)[C@H](CCc2ccc(C(F)(F)F)c(Cl)c2)NC(=O)CN(C)C(=O)[C@H](CC2CCCCC2)N(C)C(=O)[C@@H]2CCN2C(=O)[C@H](C)N(C)C1=O [Compound 1081] ([NMeL]I[NMeA][Aze][NMeCha][Sar][hPhe(3-Cl-4-CF3)][NMeAbu(3,3-F2-piperidino)]A[NMeGly(cPent)][NMeD]-NMe2; lactam N-11)	25
CC[C@H](C)[C@@H]1NC(=O)[C@H](CC(C)C)N(C)C(=O)C[C@@H](C)NC(=O)[C@H](C(C)C)N(C)C(=O)C2(CCCC2)NC(=O)[C@@H]2CCCN2C(=O)[C@H](CCc2ccc(C(F)(F)F)c(Cl)c2)NC(=O)CN(C)C(=O)[C@H](CC2CCCCC2)N(C)C(=O)[C@@H]2CCN2C(=O)[C@@H]2CCCN2C1=O [Compound 1082] (cyclo([Ac5c][NMeV][d(β3hA)][NMeL]IP[Aze][NMeCha][Sar][hPhe(3-Cl-4-CF3)]P))	270
CC[C@H](C)[C@@H]1NC(=O)[C@H](C)N(C)C(=O)C[C@@H](C(=O)N2CCCC2)NC(=O)[C@H](CC(C)C)N(C)C(=O)[C@H](Cc2ccccc2)NC(=O)[C@H](CC(C)C)NC(=O)[C@H](CCc2ccc(C(F)(F)F)cc2)NC(=O)CN(C)C(=O)[C@H](Cc2ccc(Cl)cc2)N(C)C(=O)CN(C)C(=O)CN(C)C1=O [Compound 1085] ([NMeA]I[Sar][Sar][NMePhe(4-Cl)][Sar][hPhe(4-CF3)]LF[NMeL]D-Pyrrolidide; lactam N-11)	50
